Tests used:
male C57BI6 mice [1] = experiment: 2/3 partial hepatectomy in mice; format: in vivo, mouse
Description: Forty-eight male C57BI6 mice aged 10-12 weeks underwent either 2/3 partial hepatectomy, paracetamol intoxication or chronic liver injury plus 2/3 partial hepatectomy. 2/3 partial hepatectomy was performed by ligating the left lobe and left and right median lobes. Paracetamol intoxication was performed by intraperitoneal administration of 350 mg/kg paracetamol dissolved in phosphate buffered saline (PBS). Chronic liver injury plus 2/3 partial hepatectomy was performed by eight weeks intraperitoneal carbon tetrachloride administration 1 mcl/g twice weekly dissolved in olive oil followed by ⅔ partial hepatectomy as described above. […] Control mice (n=8 per injury model) received subcutaneous PBS of appropriate volume. […]
Following a midline laparotomy the liver was excised and weighed. Liver weight to body weight ratio was calculated and expressed as a percentage. Livers were fixed in 4% formalin overnight then transferred to 70% ethanol. Livers were then embedded in paraffin blocks and 4 μm sections cut. Immunohistochemistry for Ki67 (a marker of cellular proliferation expressed throughout the cell cycle) was performed following heat mediated antigen retrieval in Tris/EDTA solution at pH9. Hepatocyte proliferation was quantified by counting ki67 positive hepatocytes in 20 high powered fields (400×) per animal and the mean calculated. […]

male C57BI6 mice [2] = experiment: Paracetamol intoxication in mice; format: in vivo, mouse; details: CSF1 receptor blockade, 180 mg/kg via gavage; Day 3 post injury
Description: Forty-eight male C57BI6 mice aged 10-12 weeks underwent either 2/3 partial hepatectomy, paracetamol intoxication or chronic liver injury plus 2/3 partial hepatectomy. 2/3 partial hepatectomy was performed by ligating the left lobe and left and right median lobes. Paracetamol intoxication was performed by intraperitoneal administration of 350 mg/kg paracetamol dissolved in phosphate buffered saline (PBS). Chronic liver injury plus 2/3 partial hepatectomy was performed by eight weeks intraperitoneal carbon tetrachloride administration 1 mcl/g twice weekly dissolved in olive oil followed by ⅔ partial hepatectomy as described above. […] Control mice (n=8 per injury model) received subcutaneous PBS of appropriate volume. All mice were culled on day 4 following injury (partial hepatectomy or paracetamol intoxication).
Following a midline laparotomy the liver was excised and weighed. Liver weight to body weight ratio was calculated and expressed as a percentage. Livers were fixed in 4% formalin overnight then transferred to 70% ethanol. Livers were then embedded in paraffin blocks and 4 μm sections cut. Immunohistochemistry for Ki67 (a marker of cellular proliferation expressed throughout the cell cycle) was performed following heat mediated antigen retrieval in Tris/EDTA solution at pH9. Hepatocyte proliferation was quantified by counting ki67 positive hepatocytes in 20 high powered fields (400×) per animal and the mean calculated.
Hepatic CSF1 gene expression was assessed in mice following paracetamol intoxication (350 mg/kg paracetamol IP following overnight fast) at time points up to 4 days, showing peak CSF1 gene expression at day 2 (FIG. 14A).

[3] = test system: csf1r-EGFP (MacGreen) mice; experiment: Fc-CSF-1 injected subcutaneously into csf1r-EGFP mice on 4 days, sacrificed on the 5th day; format: in vivo, mouse; details: 1 mg/kg
Description: Mice were injected with Fc-CSF-1 subcutaneously on each of 4 days and sacrificed on the 5th day. The mice were csf1r-EGFP (MacGreen) mice on the C57BI/6 background. Tissue processing and immunohistochemistry were carried out as described in (Alikhan et al Am J. Pathol. 179, 1243-1256, 2011 and Macdonald et al Blood. 116, 3955-3963, 2010). A comparison of the effect of recombinant pig CSF-1 or Fc-CSF-1 on the proliferation of mouse bone marrow cells or the Ba/F3 CS1R reporter cell line using the assay described in Gow et al Cytokine.

Pig PK (plasma ELISA) = format: in vivo; details: weaner pigs; 0.5 mg/kg SC
Description: Porcine CSF-1 Fc-fusion plasma levels were detected using an in-house developed conventional sandwich ELISA utilizing commercially available antibodies. Capture antibody was Abcam ab9693 (0.3 μg/mL) and detection antibody was Rabbit anti-pig IgG (Fc) biotinylated Alpha Diagnostic 90440 (1:5000 dilution). Standard protein was generated and purified in-house (lot 2/24/11 JAS). Standards were added to each plate along with the samples resulting in an 11 point standard range of 2700 ng/mL to […]. This allowed for quantitation of each sample to a standard curve on every assay plate. Assay detection was done using Pierce High Sensitivity Streptavidin-HRP (1:10,000 dilution) and TMB Microwell Peroxidase Substrate System solution (KPL).
Weaner age barrows (<14 kg) were assigned to three treatment groups receiving a single intravenous (IV) or subcutaneous (SC) dose as follows. Three pigs received 0.5 mg/kg CSF-1 non-fusion dosed SC. Two pigs received 1.2 mg/kg CSF-1:Fc fusion dosed IV. Two pigs received 1.2 mg/kg CSF-1:Fc dosed SC. One ml plasma samples were obtained via the V. jugularis in EDTA anticoagulant tubes and placed on ice until centrifuged. The plasma was transferred to sterile tubes stored at ≤−10° C. until analysis. Serial plasma samples were obtained from each animal at pre-dose and 5 minutes, 30 minutes, 1 hour, 2 hours, 4 hours, 6 hours, 8, hours, 24 hours, 48 hours, and 72 hours post-dose. CSF-1 and CSF-1:Fc fusion protein levels were quantitated in plasma using ELISA assays.

[4] = day 2 following partial hepatectomy, vs controls

COc1ccc(COc2ccc(Cc3cnc(N)nc3N)cc2OC)cc1 [GW2580, reference compound]
serum ALT (marker of liver injury) (male C57BI6 mice [1]; CSF1 receptor blockade, 180 mg/kg via gavage): raised
hepatocyte proliferation (male C57BI6 mice [1]; CSF1 receptor blockade, 180 mg/kg via gavage, Day 3): markedly impaired
gene expression of oncostatin M (OSM) (male C57BI6 mice [1]; [4]): significant reduction
gene expression of pro-regenerative cytokine 116 (male C57BI6 mice [1]; [4]): significant reduction
urokinase receptor (UR) expression (male C57BI6 mice [1]; following partial hepatectomy, vs controls): reduction
hepatocyte proliferation (male C57BI6 mice [2]): impaired
liver weight to body weight ratio (male C57BI6 mice [2]): reduced
serum ALT (marker of liver injury) (male C57BI6 mice [2]): raised

B1: CSF-1: unmodified recombinant pig CSF-1 protein, non-fusion comparator (protein)
chain: SENCSHMIGDGHLKVLQQLIDSQMETSCQIAFEFVDQEQLTDPVCYLKKAFLQVQDILDETMRFRDNTPNANVIVQLQELSLRLNSCFTKDYEEQDKACVRTFYETPLQLLEKIKNVFNETKNLLKKDWNIFSKNCNNSFAKCSSQDVVTKPDCN
total body weight [3]: no effect
peak plasma level (Pig PK (plasma ELISA)): around 100 ng/ml
time by which completely cleared from plasma (Pig PK (plasma ELISA)): ≤ 20 h

Reference: US20180112193A1, “CSF1 THERAPEUTICS” (University Court Of The University Of Edinburgh, priority 2013, published 2018)
